Reference: ChEMBL document CHEMBL1201862, “PubChem BioAssay data set” (2004)
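In this assay, cells in 96-well plates receive the compound at five concentrations for 48 hours. Endpoints are linearly interpolated between the surrounding concentrations. GI50 = concentration required for 50% inhibition of growth.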 Active and inactive are the calls of the source. Cut-off read from the data, not from the text of the source: active = GI50 up to about 1.1 µM and inactive = higher.

How the values were obtained:
Assay in all cases: inhibition of tumour cell growth, NCI panel, 48 h
CCRF-CEM = tested on: CCRF-CEM
COLO 205 = tested on: COLO 205
DLD-1 = tested on: DLD-1
HCT-116 = tested on: HCT-116
HOP-92 = tested on: HOP-92
LOX IMVI = tested on: LOX IMVI
M14 = tested on: M14
NCI-H522 = tested on: NCI-H522
OVCAR-3 = tested on: OVCAR-3
OVCAR-4 = tested on: OVCAR-4
SK-MEL-2 = tested on: SK-MEL-2
SNB-19 = tested on: SNB-19
TK-10 = tested on: TK-10
U-251 = tested on: U-251
UACC-62 = tested on: UACC-62
UO-31 = tested on: UO-31
OVCAR-5 = tested on: OVCAR-5
A498 = tested on: A498
MCF7 = tested on: MCF7
NCI/ADR-RES = tested on: NCI/ADR-RES

| SMILES | GI50 (CCRF-CEM) | GI50 (COLO 205) | GI50 (DLD-1) | GI50 (HCT-116) | GI50 (HOP-92) | GI50 (LOX IMVI) | GI50 (M14) | GI50 (NCI-H522) | GI50 (OVCAR-3) | GI50 (OVCAR-4) | GI50 (SK-MEL-2) | GI50 (SNB-19) | GI50 (TK-10) | GI50 (U-251) | GI50 (UACC-62) | GI50 (UO-31) | GI50 (OVCAR-5) | GI50 (A498) | GI50 (MCF7) | GI50 (NCI/ADR-RES) |
| --- | --- | --- | --- | --- | --- | --- | --- | --- | --- | --- | --- | --- | --- | --- | --- | --- | --- | --- | --- | --- |
| O=C(O)/C=C/c1nc2ccccc2c(=O)o1 | 77.3 µM (inactive) | > 100 µM (inactive) | > 100 µM (inactive) | > 100 µM (inactive) | > 100 µM (inactive) | > 100 µM (inactive) | > 100 µM (inactive) | > 100 µM (inactive) | > 100 µM (inactive) | > 100 µM (inactive) | > 100 µM (inactive) | > 100 µM (inactive) | > 100 µM (inactive) | > 100 µM (inactive) | > 100 µM (inactive) | > 100 µM (inactive) | – | – | – | – |
| COc1cc(/C=C/c2csnn2)cc(OC)c1OC | > 100 µM (inactive) | – | > 100 µM (inactive) | > 100 µM (inactive) | 66.7 µM (inactive) | > 100 µM (inactive) | > 100 µM (inactive) | > 100 µM (inactive) | > 100 µM (inactive) | > 100 µM (inactive) | > 100 µM (inactive) | > 100 µM (inactive) | > 100 µM (inactive) | > 100 µM (inactive) | > 100 µM (inactive) | > 100 µM (inactive) | > 100 µM (inactive) | – | – | – |
| O=C(CCCCCCCCCCc1ccccc1)C1=C(O)CC(O)CC1=O (configuration not stated) | 45.1 µM (inactive) | 45.2 µM (inactive) | 80.4 µM (inactive) | 43.3 µM (inactive) | 33.3 µM (inactive) | 48.2 µM (inactive) | 59.8 µM (inactive) | 33.4 µM (inactive) | 52.6 µM (inactive) | 74.3 µM (inactive) | 25.4 µM (inactive) | 88.5 µM (inactive) | 64.6 µM (inactive) | 55.1 µM (inactive) | 59.8 µM (inactive) | 60.5 µM (inactive) | 39.5 µM (inactive) | – | – | – |
| CCOC(=O)C1=C(Nc2ccccc2)SCC1=O | – | > 100 µM (inactive) | > 100 µM (inactive) | > 100 µM (inactive) | > 100 µM (inactive) | > 100 µM (inactive) | > 100 µM (inactive) | > 100 µM (inactive) | > 100 µM (inactive) | 63.2 µM (inactive) | > 100 µM (inactive) | > 100 µM (inactive) | > 100 µM (inactive) | 10 µM (inactive) | > 100 µM (inactive) | > 100 µM (inactive) | > 100 µM (inactive) | – | – | – |
| CCS[C@H]1NC(=O)C1[C@H](C)O[Si](C)(C)C(C)(C)C (some centres not stated) | – | > 100 µM (inactive) | > 100 µM (inactive) | 86.1 µM (inactive) | 79.8 µM (inactive) | 32.2 µM (inactive) | – | – | > 100 µM (inactive) | > 100 µM (inactive) | > 100 µM (inactive) | > 100 µM (inactive) | > 100 µM (inactive) | > 100 µM (inactive) | > 100 µM (inactive) | – | 75.5 µM (inactive) | > 100 µM (inactive) | – | – |
| CCOc1cccc2c1N[S@@](=O)S2 | 40.6 µM (inactive) | – | > 100 µM (inactive) | > 100 µM (inactive) | > 100 µM (inactive) | > 100 µM (inactive) | > 100 µM (inactive) | 55.5 µM (inactive) | > 100 µM (inactive) | – | > 100 µM (inactive) | 59.2 µM (inactive) | > 100 µM (inactive) | 47.8 µM (inactive) | 49.2 µM (inactive) | 98.4 µM (inactive) | – | – | – | – |
| CC(=O)NC(CCCCN(Cc1ccccc1)C(=O)NCCCl)C(=O)NCc1ccccc1 (configuration not stated) | > 100 µM (inactive) | > 100 µM (inactive) | > 100 µM (inactive) | > 100 µM (inactive) | > 100 µM (inactive) | – | > 100 µM (inactive) | > 100 µM (inactive) | > 100 µM (inactive) | > 100 µM (inactive) | > 100 µM (inactive) | > 100 µM (inactive) | – | > 100 µM (inactive) | > 100 µM (inactive) | > 100 µM (inactive) | – | – | – | – |
| COC(=O)CC1N/C(=N\C#N)N(CCc2c[nH]c3ccccc23)C1=O (configuration not stated) | > 100 µM (inactive) | > 100 µM (inactive) | > 100 µM (inactive) | > 100 µM (inactive) | – | > 100 µM (inactive) | > 100 µM (inactive) | – | > 100 µM (inactive) | > 100 µM (inactive) | – | > 100 µM (inactive) | > 100 µM (inactive) | > 100 µM (inactive) | > 100 µM (inactive) | 75.9 µM (inactive) | > 100 µM (inactive) | – | – | – |
| CC(C)NC(=O)OCc1c(COC(=O)NC(C)C)c(-c2ccc[n+](COC(=O)C(C)(C)C)c2)n2c1CCC2 | 24.9 µM (inactive) | > 93.5 µM (inactive) | – | > 91.6 µM (inactive) | > 91.6 µM (inactive) | 46.6 µM (inactive) | > 84.1 µM (inactive) | 35 µM (inactive) | > 100 µM (inactive) | > 79.3 µM (inactive) | > 73.6 µM (inactive) | > 100 µM (inactive) | > 100 µM (inactive) | > 76.9 µM (inactive) | 35.5 µM (inactive) | 64.7 µM (inactive) | > 100 µM (inactive) | 32.7 µM (inactive) | 57.5 µM (inactive) | > 73.1 µM (inactive) |
| Cc1ccc(C(=O)C(Cl)C(Cl)c2ccc(C)cc2)cc1 (configuration not stated) | 0.622 µM (active) | 2.07 µM (inactive) | – | 1.88 µM (inactive) | 2.4 µM (inactive) | 1.87 µM (inactive) | 4.71 µM (inactive) | 2.52 µM (inactive) | 3.42 µM (inactive) | 2.33 µM (inactive) | 16.3 µM (inactive) | 8.2 µM (inactive) | 2.99 µM (inactive) | 3.46 µM (inactive) | 3.67 µM (inactive) | 2.06 µM (inactive) | 7.87 µM (inactive) | 16.3 µM (inactive) | 4.56 µM (inactive) | 2.55 µM (inactive) |
| CCCCN(c1ccccc1)c1ncnc2c1cnn2C | 21.3 µM (inactive) | > 100 µM (inactive) | – | 40.6 µM (inactive) | 25.7 µM (inactive) | 46.3 µM (inactive) | 48.2 µM (inactive) | 19.9 µM (inactive) | 24.8 µM (inactive) | 27.1 µM (inactive) | 27.5 µM (inactive) | 89.9 µM (inactive) | 39.2 µM (inactive) | 44.2 µM (inactive) | 31.2 µM (inactive) | 40.6 µM (inactive) | 47.4 µM (inactive) | 23.3 µM (inactive) | 32.4 µM (inactive) | 22.5 µM (inactive) |
| COc1ccc(OC)c2c1C[C@@H]1C(C#N)N3[C@H](Cc4c(OC)ccc(OC)c4[C@@H]3C)C(=O)N1[C@H]2C (some centres not stated) | 1.9 µM (inactive) | 1.84 µM (inactive) | – | 3.83 µM (inactive) | 2.06 µM (inactive) | 2.44 µM (inactive) | 2.67 µM (inactive) | 1.68 µM (inactive) | 2.07 µM (inactive) | 3.23 µM (inactive) | 2.16 µM (inactive) | 2.15 µM (inactive) | 3.57 µM (inactive) | 2.26 µM (inactive) | 2.36 µM (inactive) | 2.25 µM (inactive) | 8.09 µM (inactive) | 11.2 µM (inactive) | 3.91 µM (inactive) | 4.12 µM (inactive) |
